Read-outs that look alike come from different tables or passages of the source.
Experiments:
[1] = Phase I microsomal stability, mouse liver microsomes; assay type: in vitro ADME
Protocol: The metabolic stability of ART631 was assessed in human and mouse plasma and liver microsomes (LM). For phase I microsomal stability assays, analogs (10 µM in <1% acetonitrile) were incubated in PBS containing liver microsomes, with or without cofactors ([22]). Microsomal controls (without cofactors) were used to determine non-enzymatic degradation. All experiments were incubated at 37°C for 1h and performed in duplicate. Reactions were stopped with acetonitrile and analyzed as described below.
(§1) ART631 was extracted from 25 µL plasma or microsomal solutions with 100 µL acetonitrile containing artemisinin (i.e. the natural product) as internal standard. […] Mobile phase A was ammonium acetate (2mM) containing 0.1% formic acid, and mobile phase B was acetonitrile containing 0.1% formic acid. The gradient started with mobile phase B and was held at 40% for 0.5 minutes with a flow rate of 0.4 mL/min, then increased to 100% over 1.5 minutes and held for 2.0 minutes, and finally returned back to 40% mobile phase B and allowed to equilibrate for 2.0 minutes. An AB Sciex 5500 triple quadrupole mass spectrometer operated in positive electrospray ionization mode was used for the detection of ART631. For stability studies, the ratio of ART631 to the internal standard, artemisinin, was assessed. Calibration curves for ART631 were computed using the ratio of the peak area to that of the internal standard by using a quadratic equation with a 1/x^2 weighting function over the range of 8-1585 nM with dilutions of up to 1:10 (v/v).

[2] = Plasma pharmacokinetics after oral dosing in NRG mice; assay type: in vivo; conditions: mouse; for Vd/F: read-out: Vz/F
Protocol: (§2) Mice were dosed orally with ART631 at empirically determined maximally tolerated doses (MTDs) of 75 mg/kg ART631 as a single dose alone or 15 mg/kg as a multiple dose regimen (once daily x5), either alone or in combination with SOR (30 mg/kg/d) and VEN (150 mg/kg/d), for side-by-side comparison to the ART838, SOR and VEN combination evaluated previously ([20]). ART631, SOR, and VEN were mixed in vehicle and given as a single administration. Mice (n = 3/time point) were euthanized at 0.5, 1, 1.5, 2, 3, 4, 6, 8 and 12 h after dosing. ART631 was quantified in plasma as described below. Pharmacokinetic parameters were calculated from mean concentration-time data using non-compartmental methods in Phoenix WinNonlin version 8.3 (Certara, Princeton, NJ). The maximum plasma concentration (Cmax) and time to Cmax (Tmax) were the observed values. The AUClast was calculated using the log-linear trapezoidal method. AUC was extrapolated to infinity (AUCINF) by dividing the last quantifiable concentration by the terminal disposition rate constant (λz). The λz was determined from at least 3 points on the slope of the terminal phase of the concentration-time profile. The terminal half-life (T1/2) was determined by dividing 0.693 by λz. Apparent clearance (Cl/F) was calculated by dividing the dose administered by AUCINF. Apparent volume of distribution (V/F) was calculated by dividing Cl/F by λz. If the percent AUC extrapolated was >20% or the r^2 of λz was <0.85, the AUCINF, Cl/F, T1/2 and V/F were not reported.
The Method of Bailer was used to estimate the variance of AUC given the calculated variance of the mean concentration at each time point ([23]). A pairwise comparison utilizing Z test was used to determine whether there was a significant difference between ART631 exposures as expressed by AUClast ([24]). In all cases, p < 0.05 was considered statistically significant.
as §1

[3] = Maximum tolerated dose in NRG mice; assay type: in vivo
Protocol: as §2
In pilot experiments, the MTD of ART631 was determined, in NRG (host strain for our AML xenograft models) mice, to be 75 mg/kg PO (gavage) for a single dose, or 15 mg/kg/d PO x5d every 14 days. When ART631 was combined with 150 mg/kg/d VEN and/or 30 mg/kg/d SOR, as was done previously with ART838 ([20]), ART631 was tolerated at the multiple dose MTD, and no further dose adjustments were made. The PK of ART631 was assessed at the MTD.

[4] = system: C/EBP homologous protein (CHOP); experiment: Western blot for CHOP; assay type: cell-based, human; conditions: MOLM14, 200 nM, 18h, similar results in MV4;11 and ML2
Protocol: Cells were pre-treated with […] ROS detection reagent 5-(and 6-)-chloromethyl-2’,7’-dichlorodihydrofluorescein diacetate (CM-H2DCFDA, Life Technologies) for 30 min, followed by the iron chelator deferoxamine mesylate (DFO; 11 mM) for 60 min. Cells were then treated with ART631 (200 nM) or DMSO control for 18h, with subsequent analysis by flow cytometry. Western blotting and quantitative reverse transcription PCR (qRT-PCR) to assess for molecular markers of ROS-mediated apoptosis were performed as previously described ([20]).
Figure 4 ART631 elevated ROS and CHOP levels and reduced MCL1 expression in MOLM14 AML cells. (A) MOLM14 AML cells were pre-treated with ROS detection reagent CM-H2DCFDA ([…]) for 30 min, pre-treated with deferoxamine mesylate (DFO; 11 mM) for 60 min, and then treated with ART631 (200 nM) or DMSO control for 18h. They were then analyzed by flow cytometry. Graph represents %CM-H2DCFDA fluorescence compared to vehicle (DMSO) control treated cells. Error bars represent SD from 3 independent experiments. (B) MOLM14 AML cells were treated for 18h with vehicle, AS (10 uM), ART838 (200 nM), ART631 (200 nM), cytarabine (AraC; 150 nM), or SOR (5 uM). Protein was isolated and western blotted for MCL1, BCL2, CHOP, and β-actin. (C) MOLM14 cells were treated as in (B) for 18h, total RNA isolated, cDNA synthesized, and SYBR Green qRT-PCR performed in triplicates. […]

[5] = 15 mg/kg/day, NRG mice plasma, 15 mg/kg/d PO qd x 5 alone, after 5th dose
[6] = NRG mice plasma, 15 mg/kg/d PO qd x 5 in SAV (SOR 30 mg/kg/d, VEN 150 mg/kg/d), after 5th dose
[7] = NRG mice plasma, 75 mg/kg PO x 1

For `C=CCO/N=C(/C[C@H]1O[C@@H]2O[C@@]3(C)CC[C@H]4[C@H](C)CC[C@@H]([C@H]1C)[C@@]24OO3)[C@H]1O[C@@H]2O[C@@]3(C)CC[C@H]4[C@H](C)CC[C@@H]([C@H]1C)[C@@]24OO3` [ART631], the “percentage remaining, Phase I Metabolism MLM NADPH(+)” value ([1]; 10 µM, 37°C, 1h, with cofactors) was 35%, the “percentage remaining, Phase I Metabolism MLM NADPH(-)” value ([1]; 10 µM, 37°C, 1h, without cofactors) was 60% and the “degradation in mouse liver microsomes with co-factors” value ([1]; NADPH-dependent phase I metabolism) was ~ 40%. The half-life ([2]; NRG, plasma, oral, ART631 alone, single and multiple dose regimens, read-out: half-life) was 1.1 to 1.7 h, the AUC(0-t) [2, 5] was 2.74 µM·h and the CL/F [2, 5] was 145 mL/min/kg. It also gave a Cmax [2, 5] of 935 nM, a Tmax [2, 5] of 2 h and a half-life ([2]; 15 mg/kg/day, NRG mice plasma, 15 mg/kg/d PO qd x 5 alone, after 5th dose, read-out: T1/2 (converted)) of 1.7 h. For the same compound, the Vd/F [2, 5] was 21.5 L/kg, the AUC(0-t) [2, 6] was 3.73 µM·h and the CL/F [2, 6] was 102 mL/min/kg. The Cmax [2, 6] was 719 nM, the Tmax [2, 6] was 2 h and the half-life ([2]; NRG mice plasma, 15 mg/kg/d PO qd x 5 in SAV (SOR 30 mg/kg/d, VEN 150 mg/kg/d), after 5th dose, read-out: T1/2 (converted)) was 2.4 h. For the same compound, the Vd/F [2, 6] was 21.3 L/kg, the AUC(0-t) [2, 7] was 22.9 µM·h and the CL/F [2, 7] was 86.7 mL/min/kg. It also gave a Cmax [2, 7] of 13100 nM, a Tmax [2, 7] of 1.5 h and a half-life ([2]; NRG mice plasma, 75 mg/kg PO x 1, read-out: T1/2 (converted)) of 1.1 h. For the same compound, the Vd/F [2, 7] was 8.4 L/kg, the “tolerability when combined with VEN and/or SOR” value ([3]; ART631 at multiple dose MTD with 150 mg/kg/d VEN and/or 30 mg/kg/d SOR) was “tolerated” and the MTD ([3]; mouse, in vivo, NRG mice, PO (gavage), single dose) was 75 mg/kg. For the same compound, the MTD at 5 d ([3]; mouse, in vivo, NRG mice, PO x5d every 14 days, read-out: MTD, multiple dose) was 15 mg/kg/day and the “level of CHOP protein” value [4] was “increase”.

From paper PMC8811960, “A Novel 2-Carbon-Linked Dimeric Artemisinin With Potent Antileukemic Activity and Favorable Pharmacology” (Frontiers in Oncology, 2022)
